Values of other authors, collected in patent US20030100464A1, “Dishwashing compositions containing alkylbenzenesulfonate surfactants” (priority 2001, published 2003).

Assays:
[1] = all-aqueous solution at 25° C., ionic strength 0.1 to 0.5 M
[2] = enzymes compared at 0.075 to 2.5 mg protein per liter

| Molecule | pK1 [1] | pK2 [1] | improvement of lard stain removal efficiency, factor over the wild-type lipase [2] |
| --- | --- | --- | --- |
| CCC(N)CCN (stereo not drawn) [1,3 pentane diamine] | 10.5 | 8.9 | – |
| NCCCN [1,3 propane diamine] | 10.5 | 8.8 | – |
| NCCCCCCN [1,6 hexane diamine] | 11 | 10 | – |
| CC(CN)CCCN (stereo not drawn) [2-methyl 1,5 pentane diamine] | 11.2 | 10.0 | – |
| D96L: D96L lipolytic enzyme variant of the native lipase derived from Humicola lanuginosa (protein, UniProt O59952 23-291, looked up, variant D96L) Lipase: EVSQDLFNQFNLFAQYSAAAYCGKNNDAPAGTNITCTGNACPEVEKADATFLYSFEDSGVGDVTGFLALDNTNKLIVLSFRGSRSIENWIGNLNFLLKEINDICSGCRGHDGFTSSWRSVADTLRQKVEDAVREHPDYRVVFTGHSLGGALATVAGADLRGNGYDIDVFSYGAPRVGNRAFAEFLTVQTGGTLYRITHTNDIVPRLPPREFGYSHSSPEYWIKSGTLVPVTRNDIVKIEGIDATGGNNQPNIPDIPAHLWYFGLIGTCL | – | – | 4.4 |
